The values that follow come from patent US20130030012A1, “COMPOUNDS” (Glaxo Group Limited, priority 2011, published 2013).

Structures are written as SMILES. Counter-ions that a name gives are not always drawn. Like-named read-outs stand apart in the source and are kept apart here.

Assay [1] concerns the target T1, recombinant human Lp-PLA2 (Homo sapiens, UniProt Q13093).
T1 sequence (Q13093 22-441): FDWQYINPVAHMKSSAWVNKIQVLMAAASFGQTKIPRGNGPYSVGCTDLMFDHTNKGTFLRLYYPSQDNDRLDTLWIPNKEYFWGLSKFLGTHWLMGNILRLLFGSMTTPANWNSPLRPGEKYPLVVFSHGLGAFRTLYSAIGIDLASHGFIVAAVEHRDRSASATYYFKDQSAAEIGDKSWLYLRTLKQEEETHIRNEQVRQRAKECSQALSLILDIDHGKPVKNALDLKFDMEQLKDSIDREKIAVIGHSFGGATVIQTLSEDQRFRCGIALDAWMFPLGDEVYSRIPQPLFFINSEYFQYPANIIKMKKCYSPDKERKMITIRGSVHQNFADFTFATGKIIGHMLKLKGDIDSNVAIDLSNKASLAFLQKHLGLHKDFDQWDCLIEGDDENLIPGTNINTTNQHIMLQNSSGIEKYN
Nature of the assay: Recombinant human Lp-PLA2 assay (rhLp-PLA2, PED6 assay). To be noted: upper limit for pIC50 in this assay is 9.3. The assay is classed as biochemical. An excerpt:
(1) Recombinant Human Lp-PLA2 Assay (rhLp-PLA2) (Also Referred to as “PED6” Assay)
N-((6-(2,4-dinitrophenyl)amino)-hexanoyl)-2-(4,4-difluoro-5,7-dimethyl-4-bora-3a,4a-diaza-s-indacene-3-pentanoyl)-1-hexadecanoyl-sn-glycero-3-phosphoethanolamine, triethylammonium salt (PED6) is a commercially available fluorescently-labeled phospholipid, which is commercially available from Invitrogene and Molecular Probes. There is a quenching […] and a Bodipy fluorescein (FL) group in the sn2 position. Upon cleavage with Lp-PLA2, the Bodipy FL group is liberated and then may result in an increase in fluorescence. Inhibitors of Lp-PLA2 therefore prevent this cleavage and no fluorescent increase is observed.
The PED6 assay was run as an unquenched 10 μL assay. The source plate containing the compounds to be tested was prepared by making 1:3 (by volume) serial dilution of the compounds within DMSO on 384-well microplate. Then, 0.01 μL of the compounds on compound source plate were transferred into 384 well Greiner 784076 (black) plates using ECHO liquid dispenser. 5 μL of recombinant human Lp-PLA2 enzyme (4 nM (or 110 pM) rhLp-PLA2 in assay buffer of 50 mM HEPES, pH 7.4, 150 mM NaCl, 1 mM CHAPS) was added to each well of the plate. Plates were centrifuged for 10 sec at 500 rpm. After 30 minutes preincubation, 5 μL of substrate ([…] (or 5 μM) PED6 [from 5 mM DMSO stock] in assay buffer of 50 mM HEPES, pH 7.4, 150 mM NaCl, 1 mM CHAPS) was added to 384 well Greiner 784076 (black) plates. Plates were centrifuged for 10 sec at 500 rpm. The plate was covered to protect it from light and incubated for 20 min at room temperature. The plates were read for fluorescence intensity at ex: 480/em: 540 using ViewLux microplate imager for Envision spectrofluoroimeters pIC50 data, curve and QC analysis was conducted by using XL fit module in Excel.
The compounds described below were tested generally according to the PED6 assay described above.

A further assay addresses T2, Lp-PLA2 in human plasma (Homo sapiens, UniProt Q13093).
T2 construct: from tissue; host or cells: pooled human plasma
T2 sequence (Q13093 22-441): T1 sequence (Q13093 22-441)
Nature of the assay: Lp-PLA2 human plasma assay (Thio-PAF assay). The assay is classed as biochemical. The following applies: pooled human plasma; read-out: pIC50 values in the thio-PAF assay (converted). An excerpt: The human plasma assay utilizes a thioester analog of PAF (phosphatidylcholine), where hydrolysis yields to the formation of a phospholipid containing a free thiol group. The amount of thiol is quantitated continuously by reacting with CPM (7-diethylamino-3-(4′-maleimidylphenyl)-4-methylcoumarin), a maleimide which increases in fluoresence after Michael addition of thiols. This assay may detect the activity of Lp-PLA2 in human plasma, as determined by specific inhibition by Lp-PLA2 inhibitors.
The thio-PAF assay was run as a quenched 15 μL assay. Compounds source plate was prepared by making 1:3 (by volume) serial dilution of the compounds into pure DMSO on 384-well microplate. 0.01 μL of compounds on compound source plate were transferred to 384 well Greiner 784076 (black) low-volume plates by ECHO liquid dispenser. 8 μL pooled human plasma, which was previously aliquoted and frozen, was added. Plates were centrifuged for 10 sec at 500 rpm. After 30 minutes preincubation, 2 μL of substrate solution comprising 2.5 mM 2-thio-PAF [from ethanol stock], […] CPM [from a DMSO stock] and 3.2 mM NEM (N-ethylmaleimide) [made fresh daily in DMSO] in assay buffer of 50 mM HEPES, pH 7.4, 150 mM NaCl, 1 mM CHAPS was added to 384 well Greiner 784076 (black) low-volume plates by BRAVO liquid handling station. After 2 mins, reaction was quenched with 5 μL of 5% aqueous trifluoroacetic acid (TFA). Plates were covered to protect from light and incubated for 40 min at room temperature. Plates were read at ex: 380/em: 485 using—Envision microplate reader. pIC50 data, curve and QC analysis was conducted by using XLFit module in Excel.

[2] abbreviates: read-out: pIC50 values in the PED6 assay (converted).
[3] abbreviates: Table 1, read-out: rhLp-PLA2 (PED6 assay) (pIC50) (converted).

With `CN1CCCn2c1cc(OCc1ccc(Oc3cccc(C(F)(F)F)c3)c(C#N)c1)nc2=O` [Example 1, 5-(((1-methyl-6-oxo-2,3,4,6-tetrahydro-1H-pyrimido[1,6-a]pyrimidin-8-yl)oxy)methyl)-2-(3-(trifluoromethyl)phenoxy)benzonitrile], the IC50 in assay [1] (setting [2]) was at most 10 nM; at Lp-PLA2 in human plasma, at most 100 nM.

Turning to `CN1CCCn2c1cc(OCc1ccc(Oc3ccc(C(F)(F)F)cn3)c(C#N)c1)nc2=O` [Example 2, 5-(((1-methyl-6-oxo-2,3,4,6-tetrahydro-1H-pyrimido[1,6-a]pyrimidin-8-yl)oxy)methyl)-2-((5-(trifluoromethyl)pyridin-2-yl)oxy)benzonitrile], the IC50 in assay [1] (setting [3]) is 2.51 nM; in assay [1] (setting [2]) it was at most 10 nM; at Lp-PLA2 in human plasma, at most 100 nM.

Regarding `CN1CCCn2c1cc(OCc1cc(F)c(Oc3ccc(C(F)(F)F)nc3)c(F)c1)nc2=O` [Example 3, 8-((3,5-difluoro-4-((6-(trifluoromethyl)pyridin-3-yl)oxy)benzyl)oxy)-1-methyl-3,4-dihydro-1H-pyrimido[1,6-a]pyrimidin-6(2H)-one], the results for the IC50 (in assay [1] (setting [3]); in assay [1] (setting [2]); at Lp-PLA2 in human plasma) were 1 nM, at most 1 nM and at most 100 nM, respectively.

As to `CN1CCCn2c1cc(OCc1ccc(Oc3ccc(C(F)(F)F)nc3)c(F)c1)nc2=O` [Example 4, 8-((3-fluoro-4-((6-(trifluoromethyl)pyridin-3-yl)oxy)benzyl)oxy)-1-methyl-3,4-dihydro-1H-pyrimido[1,6-a]pyrimidin-6(2H)-one], the IC50 in assay [1] (setting [2]) was at most 10 nM; at Lp-PLA2 in human plasma, at most 100 nM.

Consider `CN1CCCn2c1cc(OCc1ccc(Oc3ccc(F)c(F)c3)c(F)c1)nc2=O` [Example 5, 8-((4-(3,4-difluorophenoxy)-3-fluorobenzyl)oxy)-1-methyl-3,4-dihydro-1H-pyrimido[1,6-a]pyrimidin-6(2H)-one], for which the figures for the IC50 (in assay [1] (setting [2]); on Lp-PLA2 in human plasma) were at most 10 nM and at most 100 nM, respectively.

In the case of `CN1CCCn2c1cc(OCc1ccc(Oc3ccc(Cl)c(C(F)(F)F)c3)cc1)nc2=O` [Example 6, 8-((4-(4-chloro-3-(trifluoromethyl)phenoxy)benzyl)oxy)-1-methyl-3,4-dihydro-1H-pyrimido[1,6-a]pyrimidin-6(2H)-one], the IC50 in assay [1] (setting [2]) is at most 10 nM; on Lp-PLA2 in human plasma, at most 1000 nM.

With `CN1CCCn2c1cc(OCc1ccc(Oc3ccc(Cl)c(Cl)c3)cc1)nc2=O` [Example 7, 8-((4-(3,4-dichlorophenoxy)benzyl)oxy)-1-methyl-3,4-dihydro-1H-pyrimido[1,6-a]pyrimidin-6(2H)-one], the results for the IC50 (in assay [1] (setting [3]); in assay [1] (setting [2]); at Lp-PLA2 in human plasma) were 0.794 nM, at most 1 nM and at most 100 nM, respectively.

On to `CN1CCCn2c1cc(OCc1ccc(F)cc1)nc2=O` [Example 8, 8-((4-fluorobenzyl)oxy)-1-methyl-3,4-dihydro-1H-pyrimido[1,6-a]pyrimidin-6(2H)-one], for which, on Lp-PLA2 in human plasma, the IC50 was at most 1000 nM.

With `CN1CCCn2c1cc(NCCc1ccc(Oc3ccc(Cl)c(C(F)(F)F)c3)cc1)nc2=O` [Example 9, 8-((4-(4-chloro-3-(trifluoromethyl)phenoxy)phenethyl)amino)-1-methyl-3,4-dihydro-1H-pyrimido[1,6-a]pyrimidin-6(2H)-one, trifluoroacetic acid salt], the IC50 on Lp-PLA2 in human plasma is at most 1000 nM.

In the case of `CN1CCCn2c1cc(OCc1cccc(F)c1F)nc2=O` [Example 12, 8-((2,3-difluorobenzyl)oxy)-1-methyl-3,4-dihydro-1H-pyrimido[1,6-a]pyrimidin-6(2H)-one], the IC50 at Lp-PLA2 in human plasma is at most 1000 nM.

Consider `CN1CCCn2c1cc(OCc1ccc(Oc3ccc(F)c(F)c3)cc1)nc2=O` [Example 14, 8-((4-(3,4-difluorophenoxy)benzyl)oxy)-1-methyl-3,4-dihydro-1H-pyrimido[1,6-a]pyrimidin-6(2H)-one], for which, in assay [1] (setting [2]), the IC50 is at most 10 nM.

For `CN1CCCn2c1cc(OCc1ccc(F)cc1F)nc2=O` [Example 20, 8-((2,4-difluorobenzyl)oxy)-1-methyl-3,4-dihydro-1H-pyrimido[1,6-a]pyrimidin-6(2H)-one], the IC50 on Lp-PLA2 in human plasma is at most 1000 nM.

`CN1CCCn2c1cc(OCc1cccc(C#N)c1)nc2=O` [Example 27, 3-(((1-methyl-6-oxo-2,3,4,6-tetrahydro-1H-pyrimido[1,6-a]pyrimidin-8-yl)oxy)methyl)benzonitrile]: the IC50 at Lp-PLA2 in human plasma is at most 100 nM.

`CN1CCCn2c1cc(OCc1cc(F)cc(F)c1)nc2=O` [Example 31, 8-((3,5-difluorobenzyl)oxy)-1-methyl-3,4-dihydro-1H-pyrimido[1,6-a]pyrimidin-6(2H)-one]: the IC50 at Lp-PLA2 in human plasma was at most 1000 nM.

In the case of `CN1CCCn2c1cc(OCc1cc(F)cc(C#N)c1)nc2=O` [Example 33, 3-fluoro-5-(((1-methyl-6-oxo-2,3,4,6-tetrahydro-1H-pyrimido[1,6-a]pyrimidin-8-yl)oxy)methyl)benzonitrile], the IC50 on Lp-PLA2 in human plasma is at most 100 nM.

As to `CN1CCCn2c1cc(OCc1cccc(F)c1)nc2=O` [Example 37, 8-((3-fluorobenzyl)oxy)-1-methyl-3,4-dihydro-1H-pyrimido[1,6-a]pyrimidin-6(2H)-one], at Lp-PLA2 in human plasma, the IC50 is at most 100 nM.

Take `CN1CCCn2c1cc(SCc1ccc(F)cc1)nc2=O` [Example 66, 8-(4-Fluoro-benzylsulfanyl)-1-methyl-1,2,3,4-tetrahydro-pyrimido[1,6-a]pyrimidin-6-one]: the IC50 at Lp-PLA2 in human plasma was at most 1000 nM.

For the compound `CN1CCCn2c1cc(OCc1ccc(Oc3cncnc3)c(C#N)c1)nc2=O` [Example 86, 5-(((1-methyl-6-oxo-2,3,4,6-tetrahydro-1H-pyrimido[1,6-a]pyrimidin-8-yl)oxy)methyl)-2-(pyrimidin-5-yloxy)benzonitrile], at Lp-PLA2 in human plasma, the IC50 is at most 1000 nM.

With `Cc1ccc(Oc2ccc(COc3cc4n(c(=O)n3)CCCN4)cc2)cc1F` [Example 108, 8-((4-(3-fluoro-4-methylphenoxy)benzyl)oxy)-3,4-dihydro-1H-pyrimido[1,6-a]pyrimidin-6(2H)-one], the IC50 in assay [1] (setting [2]) was at most 10 nM.

Turning to `CN1CCCn2c1cc(OCCc1ccc(Oc3ccc(F)c(F)c3)cc1)nc2=O` [Example 110, 8-(4-(3,4-difluorophenoxy)phenethoxy)-1-methyl-3,4-dihydro-1H-pyrimido[1,6-a]pyrimidin-6(2H)-one], the IC50 in assay [1] (setting [2]) is at most 10 nM.

For `O=c1nc(OCCc2ccc(F)c(F)c2)cc2n1CCCN2` [Example 111, 8-(3,4-difluorophenethoxy)-3,4-dihydro-1H-pyrimido[1,6-a]pyrimidin-6(2H)-one], the IC50 on Lp-PLA2 in human plasma is at most 1000 nM.

On to `O=c1nc(OCCc2ccc(Cl)c(Cl)c2)cc2n1CCCN2` [Example 112, 8-(3,4-dichlorophenethoxy)-3,4-dihydro-1H-pyrimido[1,6-a]pyrimidin-6(2H)-one], for which the IC50 on Lp-PLA2 in human plasma was at most 100 nM.
